Measured values taken from patent publication US6096930A, “Herbicidal cyclohexane-1,3-dione derivatives and their preparation process” (Korea Research Institute of Chemical Technology, priority 1994, dated 2000).
Read-outs that look alike come from different tables or passages of the source.

Experiments:
Assay type in all cases: in vivo
ORYSA [1] = experiment: Herbicidal activity for paddy test; details: for plant injury at 2 g/ha: 0.002 kg/ha; for plant injury at 8 g/ha: 0.008 kg/ha; for plant injury at 31 g/ha: 0.031 kg/ha; for plant injury at 125 g/ha: 0.125 kg/ha; for plant injury at 500 g/ha: 0.500 kg/ha
Summary of the method: (§1)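 Paddy test species were sown in furrows in sterilized sandy loam soil filled into pots with a 115 cm^2 surface area. Herbicidal activity was scored visually as percent control, from 0 (no effect) to 100 (complete kill).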

SCPJU = experiment: Herbicidal activity for paddy test
Summary of the method: as §1

MOOVA = experiment: Herbicidal activity for paddy test
Summary of the method: as §1

ECHOR [2] = experiment: Herbicidal activity for paddy test
Summary of the method: as §1

SAGPY = experiment: Herbicidal activity for paddy test
Summary of the method: as §1

ORYSA [3] = experiment: Herbicidal activity, upland test, post-emergence
Excerpt: (§2) The sterilized sandy loam soil is filled in test pot having a surface area of 348 cm^2 for upland test conditions or 115 cm^2 for paddy test species were planted in furrows.
(§3) The pots for the post-emergent tests were placed in a greenhouse and watered for 9~14 days, then the foliage of test plants was sprayed with a solution of the test compound in a mixture of acetone and water containing a small amount of Tween 20.
(§4) After spraying the plants were kept for one day, then watered regularly for 14 to 21 days, and herbicidal activity data were recorded.
(§5) The herbicidal activity data were taken visually by percent control, wherein 0 signifies no herbicidal effect and 100 signifies complete kill.

SORBI = experiment: Herbicidal activity, upland test, post-emergence
Excerpt: as §2, §3, §4, §5

PANDI [4] = experiment: Herbicidal activity, upland test, post-emergence
Excerpt: as §2, §3, §4, §5

AESIN = experiment: Herbicidal activity, upland test, post-emergence
Excerpt: as §2, §3, §4, §5

GOSHI = experiment: Herbicidal activity, upland test, post-emergence
Excerpt: as §2, §3, §4, §5

TRZAW [5] = experiment: Herbicidal activity, upland test, post-emergence
Excerpt: as §2, §3, §4, §5

GLXMX [6] = experiment: Herbicidal activity, upland test, post-emergence
Excerpt: as §2, §3, §4, §5

BROJA = experiment: Herbicidal activity, upland test, post-emergence
Excerpt: as §2, §3, §4, §5

ECHOR [7] = experiment: Herbicidal activity, upland test, post-emergence
Excerpt: as §2, §3, §4, §5

DIGSA = experiment: Herbicidal activity, upland test, post-emergence
Excerpt: as §2, §3, §4, §5

ZEAMX = experiment: Herbicidal activity, upland test, post-emergence
Excerpt: as §2, §3, §4, §5

ABUTH [8] = experiment: Herbicidal activity, upland test, post-emergence
Excerpt: as §2, §3, §4, §5

SOLNI = experiment: Herbicidal activity, upland test, post-emergence
Excerpt: as §2, §3, §4, §5

ORYSA [9] = experiment: Herbicidal activity, upland test, pre-emergence
Experimental: as §2
(§6) For the pre-emergent tests, were sprayed on the soil one day after planting test compound in a mixture of acetone and 7 ml of the water containing up to 0.1% Tween 20.
(§7) The concentration of the test compound in solution was varied to give a range of application rates, generally 4.0 kg/ha and submultiples thereof. The pots were placed in a greenhouse and watered regularly at the soil surface for 21 days and herbicidal effects were visually rated by a percent control.
as §5

PANDI [10] = experiment: Herbicidal activity, upland test, pre-emergence
Experimental: as §2, §6, §7, §5

TRZAW [11] = experiment: Herbicidal activity, upland test, pre-emergence
Experimental: as §2, §6, §7, §5

GLXMX [12] = experiment: Herbicidal activity, upland test, pre-emergence
Experimental: as §2, §6, §7, §5

ABUTH [13] = experiment: Herbicidal activity, upland test, pre-emergence
Experimental: as §2, §6, §7, §5

[14] = 3 Leaf, read-out: Herbicidal activity, ORYSA (3 Leaf)
[15] = seed, read-out: Herbicidal activity, ORYSA (seed)

CCON=C(CC)C1=C(O)CC(c2c(C)c(C)c3c(c2C)CC(C)(C)C3)CC1=O (stereo not shown) [Compound 2]
50 % inhibition: Herbicidal activity, GOSHI (GOSHI; 1.250 kg/ha) | Herbicidal activity, PANDI (PANDI [10]; 0.063 kg/ha)
100%: plant injury at 500 g/ha (ORYSA [1]; [14]) | plant injury at 31 g/ha (ORYSA [1]; [15]) | plant injury at 125 g/ha (ORYSA [1]; [15]) | plant injury at 500 g/ha (ORYSA [1]; [15]) | pest or weed control at 8 g/ha (ECHOR [2]; 0.008 kg/ha) | pest or weed control at 31 g/ha (ECHOR [2]; 0.031 kg/ha) | pest or weed control at 125 g/ha (ECHOR [2]; 0.125 kg/ha) | pest or weed control at 500 g/ha (ECHOR [2]; 0.500 kg/ha)
30%: plant injury at 2 g/ha (ORYSA [1]; [15])
90 % inhibition: Herbicidal activity, ECHOR (ECHOR [7]; 0.016 kg/ha)
70 % inhibition: Herbicidal activity, GOSHI (GOSHI; 1.000 kg/ha)
80 % inhibition: Herbicidal activity, ECHOR (ECHOR [7]; 0.004 kg/ha) | Herbicidal activity, TRZAW (TRZAW [11]; 1.000 kg/ha)
0%: plant injury at 2 g/ha (ORYSA [1]; [14]) | plant injury at 8 g/ha (ORYSA [1]; [14]) | plant injury at 31 g/ha (ORYSA [1]; [14]) | pest or weed control at 2 g/ha (SCPJU; 0.002 kg/ha) | pest or weed control at 8 g/ha (SCPJU; 0.008 kg/ha) | pest or weed control at 31 g/ha (SCPJU; 0.031 kg/ha) | pest or weed control at 125 g/ha (SCPJU; 0.125 kg/ha) | pest or weed control at 500 g/ha (SCPJU; 0.500 kg/ha) | pest or weed control at 2 g/ha (MOOVA; 0.002 kg/ha) | pest or weed control at 8 g/ha (MOOVA; 0.008 kg/ha) | pest or weed control at 31 g/ha (MOOVA; 0.031 kg/ha) | pest or weed control at 125 g/ha (MOOVA; 0.125 kg/ha) | pest or weed control at 500 g/ha (MOOVA; 0.500 kg/ha) | pest or weed control at 2 g/ha (SAGPY; 0.002 kg/ha) | pest or weed control at 8 g/ha (SAGPY; 0.008 kg/ha) | pest or weed control at 31 g/ha (SAGPY; 0.031 kg/ha) | pest or weed control at 125 g/ha (SAGPY; 0.125 kg/ha) | pest or weed control at 500 g/ha (SAGPY; 0.500 kg/ha)
20 % inhibition: Herbicidal activity, ORYSA (ORYSA [3]; 0.016 kg/ha) | Herbicidal activity, TRZAW (TRZAW [11]; 1.250 kg/ha)
0 % inhibition: Herbicidal activity, ORYSA (ORYSA [3]; 0.004 kg/ha) | Herbicidal activity, SORBI (SORBI; 0.004 kg/ha) | Herbicidal activity, SORBI (SORBI; 0.016 kg/ha) | Herbicidal activity, PANDI (PANDI [4]; 0.004 kg/ha) | Herbicidal activity, AESIN (AESIN; 0.004 kg/ha) | Herbicidal activity, AESIN (AESIN; 0.016 kg/ha) | Herbicidal activity, AESIN (AESIN; 0.063 kg/ha) | Herbicidal activity, AESIN (AESIN; 1.000 kg/ha) | Herbicidal activity, AESIN (AESIN; 1.250 kg/ha) | Herbicidal activity, GOSHI (GOSHI; 0.004 kg/ha) | Herbicidal activity, GOSHI (GOSHI; 0.016 kg/ha) | Herbicidal activity, TRZAW (TRZAW [5]; 0.004 kg/ha) | Herbicidal activity, TRZAW (TRZAW [5]; 0.016 kg/ha) | Herbicidal activity, GLXMX (GLXMX [6]; 0.004 kg/ha) | Herbicidal activity, GLXMX (GLXMX [6]; 0.016 kg/ha) | Herbicidal activity, BROJA (BROJA; 0.004 kg/ha) | Herbicidal activity, BROJA (BROJA; 0.016 kg/ha) | Herbicidal activity, ZEAMX (ZEAMX; 0.004 kg/ha) | Herbicidal activity, ABUTH (ABUTH [8]; 0.004 kg/ha) | Herbicidal activity, ABUTH (ABUTH [8]; 0.016 kg/ha) | Herbicidal activity, ABUTH (ABUTH [8]; 0.063 kg/ha) | Herbicidal activity, ABUTH (ABUTH [8]; 1.000 kg/ha) | Herbicidal activity, ABUTH (ABUTH [8]; 1.250 kg/ha) | Herbicidal activity, SOLNI (SOLNI; 0.004 kg/ha) | Herbicidal activity, SOLNI (SOLNI; 0.016 kg/ha) | Herbicidal activity, SOLNI (SOLNI; 0.063 kg/ha) | Herbicidal activity, SOLNI (SOLNI; 1.000 kg/ha) | Herbicidal activity, SOLNI (SOLNI; 1.250 kg/ha) | Herbicidal activity, ORYSA (ORYSA [9]; 0.016 kg/ha) | Herbicidal activity, ORYSA (ORYSA [9]; 0.063 kg/ha) | Herbicidal activity, PANDI (PANDI [10]; 0.016 kg/ha) | Herbicidal activity, TRZAW (TRZAW [11]; 0.016 kg/ha) | Herbicidal activity, TRZAW (TRZAW [11]; 0.063 kg/ha) | Herbicidal activity, GLXMX (GLXMX [12]; 0.016 kg/ha) | Herbicidal activity, GLXMX (GLXMX [12]; 0.063 kg/ha) | Herbicidal activity, GLXMX (GLXMX [12]; 1.000 kg/ha) | Herbicidal activity, GLXMX (GLXMX [12]; 1.250 kg/ha) | Herbicidal activity, ABUTH (ABUTH [13]; 0.016 kg/ha) | Herbicidal activity, ABUTH (ABUTH [13]; 0.063 kg/ha) | Herbicidal activity, ABUTH (ABUTH [13]; 1.000 kg/ha) | Herbicidal activity, ABUTH (ABUTH [13]; 1.250 kg/ha)
30 % inhibition: Herbicidal activity, GLXMX (GLXMX [6]; 0.063 kg/ha)
100 % inhibition: Herbicidal activity, ORYSA (ORYSA [3]; 1.000 kg/ha) | Herbicidal activity, ORYSA (ORYSA [3]; 1.250 kg/ha) | Herbicidal activity, SORBI (SORBI; 1.000 kg/ha) | Herbicidal activity, SORBI (SORBI; 1.250 kg/ha) | Herbicidal activity, PANDI (PANDI [4]; 0.063 kg/ha) | Herbicidal activity, PANDI (PANDI [4]; 1.000 kg/ha) | Herbicidal activity, PANDI (PANDI [4]; 1.250 kg/ha) | Herbicidal activity, TRZAW (TRZAW [5]; 1.000 kg/ha) | Herbicidal activity, TRZAW (TRZAW [5]; 1.250 kg/ha) | Herbicidal activity, BROJA (BROJA; 1.000 kg/ha) | Herbicidal activity, BROJA (BROJA; 1.250 kg/ha) | Herbicidal activity, ECHOR (ECHOR [7]; 0.063 kg/ha) | Herbicidal activity, ECHOR (ECHOR [7]; 1.000 kg/ha) | Herbicidal activity, ECHOR (ECHOR [7]; 1.250 kg/ha) | Herbicidal activity, DIGSA (DIGSA; 0.004 kg/ha) | Herbicidal activity, DIGSA (DIGSA; 0.016 kg/ha) | Herbicidal activity, DIGSA (DIGSA; 0.063 kg/ha) | Herbicidal activity, DIGSA (DIGSA; 1.000 kg/ha) | Herbicidal activity, DIGSA (DIGSA; 1.250 kg/ha) | Herbicidal activity, ZEAMX (ZEAMX; 0.063 kg/ha) | Herbicidal activity, ZEAMX (ZEAMX; 1.000 kg/ha) | Herbicidal activity, ZEAMX (ZEAMX; 1.250 kg/ha) | Herbicidal activity, ORYSA (ORYSA [9]; 1.000 kg/ha) | Herbicidal activity, PANDI (PANDI [10]; 1.000 kg/ha) | Herbicidal activity, PANDI (PANDI [10]; 1.250 kg/ha)
60%: plant injury at 125 g/ha (ORYSA [1]; [14]) | pest or weed control at 2 g/ha (ECHOR [2]; 0.002 kg/ha)
80%: plant injury at 8 g/ha (ORYSA [1]; [15])
60 % inhibition: Herbicidal activity, SORBI (SORBI; 0.063 kg/ha) | Herbicidal activity, GLXMX (GLXMX [6]; 1.000 kg/ha) | Herbicidal activity, BROJA (BROJA; 0.063 kg/ha) | Herbicidal activity, ORYSA (ORYSA [9]; 1.250 kg/ha)
40 % inhibition: Herbicidal activity, ORYSA (ORYSA [3]; 0.063 kg/ha) | Herbicidal activity, PANDI (PANDI [4]; 0.016 kg/ha) | Herbicidal activity, GOSHI (GOSHI; 0.063 kg/ha) | Herbicidal activity, TRZAW (TRZAW [5]; 0.063 kg/ha) | Herbicidal activity, GLXMX (GLXMX [6]; 1.250 kg/ha) | Herbicidal activity, ZEAMX (ZEAMX; 0.016 kg/ha)
